Experimental data reported in publication PMC2970562, “High-Affinity Inhibitors of Human NAD^+-Dependent 15-Hydroxyprostaglandin Dehydrogenase: Mechanisms of Inhibition and Structure-Activity Relationships” (PLoS ONE, 2010).
Read-outs that look alike come from different tables or passages of the source.

Key:
[1] = target: T1, HADH2 (HSD17β10) (Homo sapiens, UniProt Q99714); assay: Selectivity screen, hydroxyacyl dehydrogenase (PubChem Assay ID 886)
T1 sequence (Q99714 1-261): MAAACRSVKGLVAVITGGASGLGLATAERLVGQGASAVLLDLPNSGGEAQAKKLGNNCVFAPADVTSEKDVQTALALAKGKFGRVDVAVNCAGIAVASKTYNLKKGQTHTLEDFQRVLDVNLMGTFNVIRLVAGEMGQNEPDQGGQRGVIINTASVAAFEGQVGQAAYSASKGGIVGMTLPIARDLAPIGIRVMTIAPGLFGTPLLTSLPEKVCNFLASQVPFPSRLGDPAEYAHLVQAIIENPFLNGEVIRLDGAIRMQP
Procedure: (§1) The list also includes two SDR enzymes, hydroxyacyl dehydrogenase (HADH2, also known as type-10 hydroxysteroid dehydrogenase, HSD17β10; PubChem Assay ID 886) and type-4 hydroxysteroid dehydrogenase (HSD17β4; PubChem Assay ID 893), and a medium-chain dehydrogenase/reductase (MDR), aldehyde dehydrogenase 1 (ALDH1A1; PubChem Assay ID 1030), each of which was tested using a similar experimental protocol to that used for 15-PGDH.

[2] = target: T2, ALDH1A1 (Homo sapiens, UniProt P00352); assay: Selectivity screen, aldehyde dehydrogenase 1 (PubChem Assay ID 1030); format: biochemical
T2 sequence (P00352 1-501): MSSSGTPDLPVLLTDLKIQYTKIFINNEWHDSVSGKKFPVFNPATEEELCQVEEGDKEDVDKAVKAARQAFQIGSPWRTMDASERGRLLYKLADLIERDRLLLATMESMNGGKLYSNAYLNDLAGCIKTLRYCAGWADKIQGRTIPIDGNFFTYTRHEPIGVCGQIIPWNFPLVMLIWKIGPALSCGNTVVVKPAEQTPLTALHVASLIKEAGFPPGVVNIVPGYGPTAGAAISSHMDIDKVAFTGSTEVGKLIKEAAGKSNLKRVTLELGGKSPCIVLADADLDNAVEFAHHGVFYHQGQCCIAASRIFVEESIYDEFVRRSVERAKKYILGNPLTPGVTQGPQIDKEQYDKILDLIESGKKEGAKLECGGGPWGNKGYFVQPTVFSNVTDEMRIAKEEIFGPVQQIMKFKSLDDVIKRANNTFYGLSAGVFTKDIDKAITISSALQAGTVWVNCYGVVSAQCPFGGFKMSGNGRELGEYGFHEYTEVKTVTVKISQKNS
Procedure: as §1

[3] = target: T3, HSD17β4 (Homo sapiens, UniProt P51659); assay: Selectivity screen, type-4 hydroxysteroid dehydrogenase (PubChem Assay ID 893)
T3 sequence (P51659 1-736): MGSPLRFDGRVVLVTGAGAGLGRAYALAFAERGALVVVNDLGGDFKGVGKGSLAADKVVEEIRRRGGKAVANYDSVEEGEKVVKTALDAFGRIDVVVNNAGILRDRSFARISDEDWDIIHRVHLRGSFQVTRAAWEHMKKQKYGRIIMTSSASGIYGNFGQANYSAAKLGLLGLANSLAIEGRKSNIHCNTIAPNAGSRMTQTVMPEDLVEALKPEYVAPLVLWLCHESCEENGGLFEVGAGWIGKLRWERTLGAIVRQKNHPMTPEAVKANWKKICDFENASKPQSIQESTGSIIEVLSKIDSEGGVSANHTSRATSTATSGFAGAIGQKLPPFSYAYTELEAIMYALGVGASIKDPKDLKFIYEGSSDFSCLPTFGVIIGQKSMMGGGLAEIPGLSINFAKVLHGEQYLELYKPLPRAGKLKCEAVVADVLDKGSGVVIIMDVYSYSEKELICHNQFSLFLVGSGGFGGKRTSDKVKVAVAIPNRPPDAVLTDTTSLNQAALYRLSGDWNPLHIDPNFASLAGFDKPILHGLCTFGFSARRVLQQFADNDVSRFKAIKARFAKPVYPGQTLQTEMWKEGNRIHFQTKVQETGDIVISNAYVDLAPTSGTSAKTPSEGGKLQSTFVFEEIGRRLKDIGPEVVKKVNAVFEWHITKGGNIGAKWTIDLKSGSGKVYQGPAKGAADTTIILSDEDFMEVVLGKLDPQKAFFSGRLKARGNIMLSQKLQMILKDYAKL
Procedure: as §1

[4] = top concentration 57.5 µM, PubChem Assay ID 1030, read-out: IC50/nM ALDH1A1

Row | Compound | IC50 [1] [µM] | Emax ([2]; ALDH1A1, footnote of Table 3, read-out: Maximal response, inhibition) [%] | IC50 ([2]; ALDH1A1, shallow curve, read-out: approximate IC50) [nM] | IC50 [2, 4] [nM] | IC50 [3] [µM] | response against ALDH1A1 ([2]; in words)
1 | Cc1cccc(-n2cnc3cc(C(=O)N4CCCCC4)ccc32)c1 [Compound 13, [1-(3-methylphenyl)-1H-benzimidazol-5-yl)(piperidin-1-yl)methanone] | > 57.5 | 70 | ~36000 | 36000 | > 57.5 | –
2 | Cc1cc(-c2nnc3n2CCCCC3)c(C)n1-c1ccccc1 [Compound 72] | > 57.5 | – | – | > 57500 | > 57.5 | flat response
